Assays:
[1] = system: ECHCG; experiment: Postemergence foliar-applied weed control, direct-seeded rice (greenhouse); type: in vivo, Echinochloa crus-galli (L.) P. Beauv. (barnyardgrass)
Procedure: (§1) Seeds or nutlets of the desired test plant species were planted in a soil matrix prepared by mixing aloam or sandy loam soil (e.g., 28.6 percent silt, 18.8 percent clay, and 52.6 percent sand, with a pH of about 5.8 and an organic matter content of about 1.8 percent) and calcareous grit in an 80 to 20 ratio. The soil matrix was contained in plastic pots with a volume of 1 quart and a surface area of 83.6 square centimeters (cm^2). […] The plants were grown for 8-22 days in a greenhouse with an approximate 14 hour (h) photoperiod which was maintained at about 29° C. during the day and 26° C. during the night. Nutrients (Peters Excel® 15-5-15 5-Ca 2-Mg and iron chelate) were applied in the irrigation solution as needed and water was added on a regular basis. Supplemental lighting was provided with overhead metal halide 1000-Watt lamps as necessary. The plants were employed for testing when they reached the first through fourth true leaf stage.
(§2) Treatments consisted of the acid or esters of 4-amino-3-chloro-5-fluoro-6-(4-chloro-2-fluoro-3-methoxy-phenyl)pyridine-2-carboxylic acid (Compound A), each formulated as an SC (suspension concentrate), and various fungicidal components alone and in combination. Forms of compound A were applied on an acid equivalent basis.
(§3) For treatments comprised of formulated compounds, measured amounts of compounds were placed individually in 25 mL glass vials and diluted in a volume of 1.25% volume per volume (v/v) Agri-Dex® crop oil concentrate to obtain 12× stock solutions. […] Application solutions were prepared by adding an appropriate amount of each stock solution (e.g., 1 mL) and diluted to the appropriate final concentrations with the addition of […] of an aqueous mixture of 1.25% (v/v) crop oil concentrate so that the final spray solutions contained 1.25+/−0.05% (v/v) crop oil concentrate.
(§4) For treatments comprised of technical compounds, weighed amounts can be placed individually in 25 mL glass vials and dissolved in a volume of 97:3 volume per volume (v/v) acetone/dimethyl sulfoxide (DMSO) to obtain 12× stock solutions. […] When technical materials are used, the concentrated stock solutions can be added to the spray solutions so that the final acetone and DMSO concentrations of the application solutions are 16.2% and 0.5%, respectively.
(§5) As required, additional water and/or 97:3 v/v acetone/DMSO was added to individual application solutions so that the final acetone and DMSO concentrations of the application solutions being compared were 8.1% and 0.25%, respectively
(§6) All stock solutions and applications solutions were visually inspected for compound compatibility prior to application. Spray solutions were applied to the plant material with an overhead Mandel track sprayer equipped with 8002E nozzles calibrated to deliver 187 L/ha over an application area of 0.503 square meters (m^2) at a spray height of 18 to 20 inches (46 to 50 cm) above average plant canopy height. Control plants were sprayed in the same manner with the solvent blank.
(§7) The treated plants and control plants were placed in a greenhouse as described above and watered by sub-irrigation to prevent wash-off of the test compounds. After approximately 3 weeks, the condition of the test plants as compared with that of the untreated plants was determined visually and scored on a scale of 0 to 100 percent where 0 corresponds to no injury or growth inhibition and 100 corresponds to complete kill.
(§8) Colby's equation was used to determine the herbicidal effects expected from the mixtures (Colby, S. R. Calculation of the synergistic and antagonistic response of herbicide combinations. Weeds 1967, 15, 20-22.).
(§9) The following equation was used to calculate the expected activity of mixtures containing two active ingredients, A and B: Expected=A+B−(A×B/100)

[2] = system: CYPIR; experiment: as above; type: in vivo, Cyperus iria L. (rice flatsedge); settings: 21 DAA
Procedure: as §1, §2, §3, §4, §5, §6, §7, §8, §9

[3] = system: ECHCO; experiment: as above; type: in vivo, Echinochloa colonum (L.) LINK (junglerice); settings: 21 DAA
Source text: (§10) Seeds or nutlets of the desired test plant species were planted in a soil matrix prepared by mixing aloam or sandy loam soil (e.g., 28.6 percent silt, 18.8 percent clay, and 52.6 percent sand, with a pH of about 5.8 and an organic matter content of about 1.8 percent) and calcareous grit in an 80 to 20 ratio. The soil matrix was contained in plastic pots with a volume of 1 quart and a surface area of 83.6 square centimeters (cm^2). When required to ensure good germination and healthy plants, a fungicide treatment and/or other chemical or physical treatment was applied. The plants were grown for 8-22 days in a greenhouse with an approximate 14 hour (h) photoperiod which was maintained at about 29° C. during the day and 26° C. during the night. Nutrients (Peters Excel® 15-5-15 5-Ca 2-Mg and iron chelate) were applied in the irrigation solution as needed and water was added on a regular basis. Supplemental lighting was provided with overhead metal halide 1000-Watt lamps as necessary. The plants were employed for testing when they reached the first through fourth true leaf stage.
as §2
(§11) Treatment requirements were calculated based upon the rates being tested, the concentration of active ingredient or acid equivalent in the formulation and a 12 milliliter (mL) application volume at a rate of 187 liters per hectare (L/ha).
as §3, §4, §5, §6
as §7, with “kill. […]” for “kill.”

[4] = system: IPOHE; experiment: as above; type: in vivo, Ipomoea hederacea (L.) Jacq. (ivyleaf morningglory); settings: r29-30 ester 8/16 g ae/ha alone, r31-33 hexaconazole 25/50/100 g ai/ha alone, r34-39 ester 8/16 at each of 25, 50, 100
Procedure: as §1, §2, §3, §4, §5, §6, §7, §8, §9

[5] = system: BRAPP; experiment: as above; type: in vivo
Source text: as §10, §2, §11, §3, §4, §5, §6
as §7, with “kill. […]” for “kill.”

[6] = system: LEFCH; experiment: as above; type: in vivo, Leptochloa chinensis (L.) Nees (Chinese sprangletop); settings: 21 DAA
Procedure: as §1, §2, §3, §4, §5, §6, §7, §8, §9

[7] = system: CYPES; experiment: as above; type: in vivo, Cyperus esculentus L. (yellow nutsedge)
Procedure: as §1, §2, §3, §4, §5, §6
as §7, with “kill. […]” for “kill.”

[8] = system: DIGSA; experiment: as above; type: in vivo, Digitaria sanguinalis (L.) Scop. (large crabgrass)
Source text: as §10, §2, §11, §3, §4, §5, §6
as §7, with “kill. […]” for “kill.”

[9] = system: CYPRO; experiment: In-water applied weed control, transplanted paddy rice (greenhouse); type: in vivo, Cyperus rotundus L. (purple nutsedge)
Procedure: (§12) Weed seeds or nutlets of the desired test plant species were planted in puddled soil (mud) prepared by mixing a shredded, non-sterilized mineral soil (50.5 percent silt, 25.5 percent clay, and 24 percent sand, with a pH of about 7.6 and an organic matter content of about 2.9 percent) and water at a 1:1 volumetric ratio. The prepared mud was dispensed in 365 mL aliquots into 16-ounce (oz.) non-perforated plastic pots with a surface area of 86.59 square centimeters (cm^2) leaving a headspace of 3 centimeters (cm) in each pot. Rice seeds were planted in Sun Gro MetroMix® 306 planting mixture, which typically has a pH of 6.0 to 6.8 and an organic matter content of about 30 percent, in plastic plug trays. Seedlings at the second or third leaf stage of growth were transplanted into 860 mL of mud contained in 32-oz. non-perforated plastic pots with a surface area of 86.59 cm^2 4 days prior to herbicide application. The paddy was created by filling the headspace of the pots with 2.5 to 3 cm of water. When required to ensure good germination and healthy plants, a fungicide treatment and/or other chemical or physical treatment was applied. The plants were grown for 4-22 days in a greenhouse with an approximate 14 hour (h) photoperiod which was maintained at about 29° C. during the day and about 26° C. during the night. Nutrients were added as Osmocote® (17:6:10, N:P:K+minor nutrients) at 2 g per cup. Water was added on a regular basis to maintain the paddy flood, and supplemental lighting was provided with overhead metal halide 1000-Watt lamps as necessary. The plants were employed for testing when they reached the first through fourth true leaf stage.
as §2, with “(compound A)” for “(Compound A),”, “concentrate)” for “concentrate),”
(§13) Treatment requirements for each compound or fungicidal component were calculated based upon the rates being tested, the concentration of active ingredient or acid equivalent in the formulation, an application volume of 2 mL per component per pot, and an application area of 86.59 cm^2 per pot.
For formulated compounds, a measured amount was placed in an individual 100 or 200 mL glass vial and was dissolved in a volume of 1.25% (v/v) Agri-Dex® crop oil concentrate to obtain application solutions.
For technical grade compounds, a weighed amount was placed in an individual 100 to 200 mL glass vial and dissolved in a volume of acetone to obtain concentrated stock solutions.
Applications were made by injecting with a pipetter appropriate amounts of the application solutions, individually and sequentially, into the aqueous layer of the paddy. Control plants were treated in the same manner with the solvent blank. Applications were made so that all treated plant material received the same concentrations of acetone and crop oil concentrate.
as §7, with “water was added as needed” for “watered by sub-irrigation”, “maintain a paddy flood.” for “prevent wash-off of the test compounds.”, “weeks” for “weeks,”
as §8, §9

[10] = system: FIMMI; experiment: as above; type: in vivo, Fimbristylis miliacea (L.) Vahl (globe fringerush); settings: Tricyclazole 200 g ai/ha
Procedure: as §12, with “stage. […]” for “stage.”
as §13
(§14) For formulated compounds, a measured amount was placed in an individual 100 or 200 mL glass vial and was dissolved in a volume of 1.25% (v/v) Agri-Dex® crop oil concentrate to obtain application solutions. […]
as §7, with “water was added as needed” for “watered by sub-irrigation”, “maintain a paddy flood.” for “prevent wash-off of the test compounds.”, “weeks” for “weeks,”, “kill. […]” for “kill.”

[11] = system: LEFCH; experiment: as above; type: in vivo, Leptochloa chinensis (L.) Nees (Chinese sprangletop)
Procedure: as §12, with “stage. […]” for “stage.”
as §13, §14
as §7, with “water was added as needed” for “watered by sub-irrigation”, “maintain a paddy flood.” for “prevent wash-off of the test compounds.”, “weeks” for “weeks,”, “kill. […]” for “kill.”

[12] = r9-11 ester 8/16/32 g ae/ha alone, r12-14 hexaconazole 25/50/100 g ai/ha alone, r15-23 ester 8/16/32 at each of 25, 50, 100
[13] = r10-12 ester 8/16/32 g ae/ha alone, r13-14 isoprothiolane 266/533 g ai/ha alone, r15-20 ester 8/16/32 at each of 266, 533
[14] = r38-39 ester 8/16 g ae/ha alone, r40 isotianil 380 g ai/ha alone, r41-42 ester 8/16 + 380

CCCCC(O)(Cn1cncn1)c1ccc(Cl)cc1Cl (racemic) [Hexaconazole, reference compound]
0%: Visual Weed Control (%)—21 DAA ECHCG Obs [1, 12] | Visual Weed Control (%)—21 DAA CYPIR Obs ([2]; r45 ester 8 g ae/ha alone, r46-48 hexaconazole 25/50/100 g ai/ha alone, r49-51 ester 8 + 25/50/100) | Visual Weed Control (%)—21 DAA ECHCO Obs [3, 12] | Visual Weed Control (%)—21 DAA IPOHE Obs [4] | Visual Weed Control (%)—21 DAA BRAPP Obs ([5]; r29-30 ester 8/16 g ae/ha alone, r31-33 hexaconazole 25/50/100 g ai/ha alone, r34-39 ester 8/16 at each of 25, 50, 100) | Visual Weed Control (%)—21 DAA LEFCH Obs [6, 12]

CC(C)OC(=O)C(C(=O)OC(C)C)=C1SCCS1 [Isoprothiolane, diisopropyl 1,3-dithiolan-2-ylidenemalonate, reference compound]
0%: Visual Weed Control (%) - 21 DAA CYPIR Obs ([2]; r26-27 ester 16/32 g ae/ha alone, r28-29 isoprothiolane 266/533 g ai/ha alone, r30-33 ester 16/32 at each of 266, 533) | Visual Weed Control (%) - 21 DAA CYPES Obs [7, 13] | Visual Weed Control (%) - 21 DAA LEFCH Obs [6, 13]

N#Cc1ccccc1NC(=O)c1snc(Cl)c1Cl [Isotianil, 3,4-dichloro-2′-cyano-1,2-thiazole-5-carboxanilide, reference compound]
0%: Visual Weed Control (%)—21 DAA ECHCG Obs [1, 14] | Visual Weed Control (%)—21 DAA ECHCO Obs [3, 14] | Visual Weed Control (%)—20 DAA DIGSA Obs ([8]; 20 DAA, r21-23 ester 8/16/32 g ae/ha alone, r24-25 isotianil 100/200 g ai/ha alone, r26-31 ester 8/16/32 at each of 100, 200) | Visual Weed Control (%)—21 DAA DIGSA Obs ([8]; 21 DAA, r38-39 ester 8/16 g ae/ha alone, r40 isotianil 380 g ai/ha alone, r41-42 ester 8/16 + 380) | Visual Weed Control (%)—20 DAA BRAPP Obs ([5]; 20 DAA, r9-11 ester 8/16/32 g ae/ha alone, r12 isotianil 200 g ai/ha alone, r13-15 ester 8/16/32 + 200) | Visual Weed Control (%)—21 DAA BRAPP Obs [5, 14] | Visual Weed Control (%)—21 DAA LEFCH Obs [6, 14]

O=C1CCc2cccc3c2N1CC3 [Pyroquilon, 1,2,5,6-tetrahydropyrrolo[3,2,1-ij]quinolin-4-one, reference compound]
0%: Visual Weed Control (%) - 21 DAA CYPIR Obs ([2]; r23-24 ester 16/32 g ae/ha alone, r25 pyroquilon 925 g ai/ha alone, r26-27 ester 16/32 + 925) | Visual Weed Control (%) - 21 DAA CYPES Obs ([7]; r11-12 ester 8/16 g ae/ha alone, r13 pyroquilon 925 g ai/ha alone, r14-15 ester 8/16 + 925)

Cc1cccc2sc3nncn3c12 [Tricyclazole, 5-methyl-1,2,4-triazolo[3,4-b][1,3]benzothiazole, reference compound]
0%: Visual Weed Control (%) - 22 DAA CYPRO Obs ([9]; Tricyclazole 200 g ai/ha, 22 DAA) | Visual Weed Control (%) - 19 DAA CYPRO Obs ([9]; Tricyclazole 375 g ai/ha) | Visual Weed Control (%) - 19 DAA CYPRO Obs ([9]; Tricyclazole 750 g ai/ha) | Visual Weed Control (%) - 22 DAA FIMMI Obs [10] | Visual Weed Control (%) - 19 DAA LEFCH Obs ([11]; Tricyclazole 187.5 g ai/ha) | Visual Weed Control (%) - 19 DAA LEFCH Obs ([11]; Tricyclazole 750 g ai/ha)
